Measured values published in US9409879B2, “Total synthesis of redox-active 1.4-naphthoquinones and their metabolites and their therapeutic use as antimalarial and schistomicidal agents” (CENTRE NATIONAL DE LA RECHERCHE SCIENTIFIQUE, priority 2011, dated 2016).
Where a name gives a salt, the structure may show the parent alone.

Assays:
P. falciparum strain 3D7 = assay: Antimalarial assay, chloroquine-sensitive P. falciparum 3D7; assay type: cell-based, Plasmodium falciparum; settings: chloroquine-sensitive strain 3D7
[1] = Complex formation with hematin (apparent association constants); assay type: binding; settings: pH 7.5; 1:1 charge-transfer complexes with hematin
Description: Both 3-benzylnaphtoquinone derivatives form 1:2 or 2:1 complexes with hematin displaying apparent association constants at pH 7.5 of about 10^11-10^13 M^−1. Also the benzoxanthone derivative LJ144K form 1:1 charge-transfer complexes with hematin displaying apparent association constants at pH 7.5 of about 10^5-10^6 M^−1.

hematin polymerization = assay: Inhibition of the hematin polymerisation (β-hematin formation), UV-Vis absorbance at 405 nm; assay type: biochemical; settings: for Maximum inhibition (%) / IC50 drug (equiv.)/hematin (equiv.) ratio: inhibition of β-hematin formation; for IC50 drug (equiv.)/hematin (equiv.) ratio: absorbance at 405 nm
Method: The antischistosomial effect is measured by the evaluation of the ability of the compounds to inhibit hematin polymerization according to the biochemical assay previously developed by Ncokazi. K. K. Egan. T. J. Anal. Biochem. 2005, 338, 306-319 adapted to the compounds of the present invention. The assays were monitored by UV-Vis absorption spectrophotometry and IC50 values for inhibition of β-hematin formation were determined from the absorbance at 405 nm versus the drug (equiv.)/hematin (equiv.) ratio.

P. falciparum strain Dd2 = assay: 3H-hypoxanthine incorporation antiproliferation assay, P. falciparum Dd2; assay type: cell-based, Plasmodium falciparum; settings: multi-resistant P. falciparum strain Dd2
Method: Infected erythrocytes in ring stage (0.5% parasitemia, 2.5% hematocrit) in 96-well plates were exposed to the compounds for 48 h and then to radioactive hypoxanthine for 24 h. The amount of radioactivity in precipitable material served as an index of cell proliferation.

melting point	SMILES	also measured
127 °C	CC1=C(Cc2ccc(C(F)(F)F)cc2)C(=O)c2cc(OS(=O)(=O)C(F)(F)F)ccc2C1=O (as salt: methanesulfonate) [Compound 12.29, 6-methyl-5,8-dioxo-7-(4-(trifluoromethyl)benzyl)-5,8-dihydronaphthalen-2-yl trifluoromethanesulfonate]	
87 to 88 °C	CC1=C(Cc2ccc(C(F)(F)F)cc2)C(=O)c2ccc(OS(=O)(=O)C(F)(F)F)cc2C1=O (as salt: methanesulfonate) [Compound 12.30, 7-methyl-5,8-dioxo-6-(4-(trifluoromethyl)benzyl)-5,8-dihydronaphthalen-2-yl trifluoromethanesulfonate]	
135 to 137 °C	COc1ccc2c(c1)C(=O)C(Cc1ccc(Br)cc1)=C(C)C2=O [Compound 12.1, 3-(4-bromobenzyl)-6-methoxy-2-methylnaphthalene-1,4-dione]	
86 to 87 °C	COc1ccc2c(c1)C(=O)C(Cc1ccc(C(F)(F)F)cc1)=C(C)C2=O [Compound 12.2]	
149 °C	COc1cc(CC2=C(C)C(=O)c3ccc(OC)cc3C2=O)cc(OC)c1 [Compound 12.4, 3-(3,5-dimethoxybenzyl)-6-methoxy-2-methylnaphthalene-1,4-dione]	
127 to 129 °C	CC1=C(Cc2ccc(Br)cc2)C(=O)c2cc(F)ccc2C1=O [Compound 12.5, 3-(4-bromobenzyl)-6-fluoro-2-methylnaphthalene-1,4-dione]	
149 to 151 °C	COc1ccc2c(c1)C(=O)C(C)=C(Cc1ccc(Br)cc1)C2=O [Compound 12.7, 3-(4-bromobenzyl)-7-methoxy-2-methylnaphthalene-1,4-dione]	
137 to 139 °C	COc1ccc2c(c1)C(=O)C(C)=C(Cc1ccc(C(F)(F)F)cc1)C2=O [Compound 12.8]	
151 to 153 °C	COc1cc(CC2=C(C)C(=O)c3cc(OC)ccc3C2=O)cc(OC)c1 [Compound 12.9, 3-(3,5-dimethoxybenzyl)-7-methoxy-2-methylnaphthalene-1,4-dione]	
> 200 °C (dec.)	COc1cc2c(cc1OC)C(=O)C(Cc1ccc(C(F)(F)F)cc1)=C(C)C2=O [Compound 12.11, 6,7-dimethoxy-2-methyl-3-(4-(trifluoromethyl)benzyl)naphthalene-1,4-dione]	
> 200 °C (dec.)	COc1cc2c(cc1OC)C(=O)C(Cc1ccc(Br)cc1)=C(C)C2=O [Compound 12.12, 6,7-dimethoxy-2-methyl-3-(4-bromobenzyl)naphthalene-1,4-dione]	
168 to 169 °C	COc1cc(CC2=C(C)C(=O)c3cc(OC)c(OC)cc3C2=O)cc(OC)c1 [Compound 12.13, 2-(3,5-dimethoxybenzyl)-6,7-dimethoxy-3-methylnaphthalene-1,4-dione]	
166 to 167 °C	COc1ccc(OC)c(CC2=C(C)C(=O)c3cc(OC)c(OC)cc3C2=O)c1 [Compound 12.14, 2-14(2,5-dimethoxybenzyl)-6,7-dimethoxy-3-methylnaphthalene-1,4-dione]	
107 °C	CC1=C(Cc2ccc(Br)cc2)C(=O)c2ccc(F)cc2C1=O [Compound 12.16, 2-(4-bromobenzyl)-6-fluoro-3-methylnaphthalene-1,4-dione]	
117 to 118 °C	CC1=C(Cc2ccc(F)c(Cl)c2)C(=O)c2ccc(F)cc2C1=O [Compound 12.17, 2-(3-chloro-4-fluorobenzyl)-6-fluoro-3-methylnaphthalene-1,4-dione]	
106 to 107 °C	CC1=C(Cc2ccc(F)c(C(F)(F)F)c2)C(=O)c2ccc(F)cc2C1=O [Compound 12.18, 6-fluoro-2-(4-fluoro-3-(trifluoromethyl)benzyl)-3-methylnaphthalene-1,4-dione]	
87 to 88 °C	CC1=C(Cc2ccc(C(F)(F)F)cc2)C(=O)c2c(C)cccc2C1=O [Compound 12.19, 2,5-dimethyl-3-(4-(trifluoromethyl)benzyl)naphthalene-1,4-dione]	
149 to 150 °C	CC1=C(Cc2ccc(Br)cc2)C(=O)c2c(C)cccc2C1=O [Compound 12.20, 3-(4-bromobenzyl)-2,5-dimethylnaphthalene-1,4-dione]	
102 °C	CC1=C(Cc2ccc(C(F)(F)F)cc2)C(=O)c2ccc(C)cc2C1=O [Compound 12.23, 2,7-dimethyl-3-(4-(trifluoromethyl)benzyl)naphthalene-1,4-dione]	
122 to 123 °C	CC1=C(Cc2ccc(Br)cc2)C(=O)c2ccc(C)cc2C1=O [Compound 12.24, 2,7-dimethyl-3-(4-bromobenzyl)naphthalene-1,4-dione]	
98 to 99 °C	CC1=C(Cc2ccc(C(F)(F)F)cc2)C(=O)c2cccc(C)c2C1=O [Compound 12.25, 2,8-dimethyl-3-(4-(trifluoromethyl)benzyl)naphthalene-1,4-dione]	
116 to 118 °C	CC1=C(Cc2ccc(Br)cc2)C(=O)c2cccc(C)c2C1=O [Compound 12.26, 2,8-dimethyl-3-(4-bromobenzyl)naphthalene-1,4-dione]	
143 to 144 °C	CC1=C(Cc2ccc(C(F)(F)F)cc2)C(=O)c2cc(C)c(C)cc2C1=O [Compound 12.27, 2,6,7-trimethyl-3-(4-(trifluoromethyl)benzyl)naphthalene-1,4-dione]	
129 to 130 °C	CC1=C(Cc2ccc(Br)cc2)C(=O)c2cc(C)c(C)cc2C1=O [Compound 12.28, 2,6,7-trimethyl-3-(4-bromobenzyl)naphthalene-1,4-dione]	
	Cc1c(O)c2ccccc2c2oc3cc(C(F)(F)F)ccc3c(=O)c12 [LJ144K, 5-hydroxy-6-methyl-10-(trifluoromethyl)-7H-benzo[c]xanthen-7-one]	IC50 values, antimalarial effects (P. falciparum strain 3D7): submicromolar range; apparent association constants with hematin [1]: 10^5-10^6 M^−1; Maximum inhibition (%) (hematin polymerization): 75%; IC50 drug (equiv.)/hematin (equiv.) ratio (hematin polymerization): 2.5 drug (equiv.)/hematin (equiv.) ratio
	CC1=C(Cc2ccncc2)C(=O)c2ccccc2C1=O [LJ186]	antimalarial activity relative to chloroquine and P_TM29 (P. falciparum strain Dd2): more active than chloroquine or as active as P_TM29; inhibition of the β-hematin polymerization (hematin polymerization): very potent inhibitors; Maximum inhibition (%) (hematin polymerization): 80%; IC50 drug (equiv.)/hematin (equiv.) ratio (hematin polymerization): 4.2 drug (equiv.)/hematin (equiv.) ratio
